Columns and labels:
[1] = Lipophilicity, log P of compound; format: physicochemical; details: octanol/water; read-out: logP
[2] = Protective activity against Daboia russellii venom-induced mortality by measuring venom LD50 in Swiss albino mouse at 6 mmol, iv preincubated with venom for 1 hr followed by administration to mouse measured after 24 hrs (reference value: 2.28 ug); format: functional, Daboia russelii
[3] = Protective activity against Daboia russellii venom-induced mortality in Swiss albino mouse at 6 mmol, iv preincubated with venom for 1 hr followed by administration to mouse measured after 24 hrs relative to untreated control; format: functional, Daboia russelii
[4] = Protective activity against Naja kaouthia venom-induced mortality in Swiss albino mouse at 6 mmol, iv by measuring venom LD50 preincubated with venom for 1 hr followed by administration to mouse measured after 24 hrs (reference value: 2.82 ug); format: functional
[5] = Protective activity against Naja kaouthia venom-induced mortality in Swiss albino mouse at 6 mmol, iv preincubated with venom for 1 hr followed by administration to mouse measured after 24 hrs relative to untreated control; format: functional
[6] = Protective activity against Daboia russellii venom-induced hemorrhage in intradermally dosed Swiss albino mouse at 6 mmol assessed as hemorhagic lesion by measuring minimal […] dose preincubated with venom for 1 hr followed by administration to mouse measured after 24 hrs (reference value: 5 ug); format: functional, Daboia russelii
[7] = Protective activity against Daboia russellii venom-induced hemorrhage in intradermally dosed Swiss albino mouse at 6 mmol assessed as hemorhagic lesion preincubated with venom for 1 hr followed by administration to mouse measured after 24 hrs relative to untreated control; format: functional, Daboia russelii
[8] = Protective activity against Daboia russellii venom-induced mortality in Swiss albino mouse at 6 mmol, iv by measuring venom LD50 administered immediately after venom injection measured after 24 hrs (reference value: 2.28ug); format: functional, Daboia russelii
[9] = Protective activity against Daboia russellii venom-induced mortality in Swiss albino mouse at 6 mmol, iv administered immediately after venom injection measured after 24 hrs relative to untreated control; format: functional, Daboia russelii
[10] = Protective activity against Naja kaouthia venom-induced mortality in Swiss albino mouse at 6 mmol, iv by measuring venom LD50 administered immediately after venom injection measured after 24 hrs (reference value: 2.82 ug); format: functional
[11] = Protective activity against Naja kaouthia venom-induced mortality in Swiss albino mouse at 6 mmol, iv administered immediately after venom injection measured after 24 hrs relative to untreated control; format: functional
[12] = Protective activity against Daboia russellii venom-induced hemorrhage in Swiss albino mouse at 6 mmol, iv assessed as hemorhagic lesion by measuring […] administered immediately after venom injection measured after 24 hrs (Rvb =5 ug); format: functional, Daboia russelii
[13] = Protective activity against Daboia russellii venom-induced hemorrhage in Swiss albino mouse at 6 mmol, iv assessed as hemorhagic lesion administered immediately after venom injection measured after 24 hrs relative to untreated control; format: functional, Daboia russelii

SMILES: COc1ccc(C(=O)O)c(O)c1 [4-METHOXYSALICYLIC ACID]
- logP [1]: 1.21
- LD50 [2]: 22 µg
- fold change (FC) [3]: 9.8
- LD50 [4]: 9 µg
- fold change (FC) [5]: 3.2
- MHC [6]: 20 µg
- fold change (FC) [7]: 4
- LD50 [8]: 150 µg
- fold change (FC) [9]: 3.75
- LD50 [10]: 10 µg
- fold change (FC) [11]: 2
- MHC [12]: 10 µg
- fold change (FC) [13]: 2

— ChEMBL document CHEMBL3785074, “Molecular modeling and snake venom phospholipase A2 inhibition by phenolic compounds: Structure-activity relationship” (Eur J Med Chem, 2016)
